Laboratory results published in patent US7998998B2, “Therapeutic substituted lactams” (Allergan, Inc., priority 2007, dated 2011).

Key:
[1] = biological target: T1, EP2 (Homo sapiens, UniProt P43116); assay: EP2 flipr functional assay; type: cell-based
Excerpt: (§1) U.S. patent application Ser. No. 11/553,143, filed on Oct. 26, 2006, incorporated by reference herein, describes the methods used to obtain the in vitro data in the table below.

[2] = biological target: T1, EP2; assay: EP2 cAMP assay; type: cell-based
Excerpt: as §1

[3] = biological target: T1, EP2; assay: EP2 binding (KI)
Excerpt: as §1

[4] = biological target: T2, EP4 (Homo sapiens, UniProt P35408); assay: EP4 flipr functional assay; type: cell-based
T2 sequence (P35408 whole entry): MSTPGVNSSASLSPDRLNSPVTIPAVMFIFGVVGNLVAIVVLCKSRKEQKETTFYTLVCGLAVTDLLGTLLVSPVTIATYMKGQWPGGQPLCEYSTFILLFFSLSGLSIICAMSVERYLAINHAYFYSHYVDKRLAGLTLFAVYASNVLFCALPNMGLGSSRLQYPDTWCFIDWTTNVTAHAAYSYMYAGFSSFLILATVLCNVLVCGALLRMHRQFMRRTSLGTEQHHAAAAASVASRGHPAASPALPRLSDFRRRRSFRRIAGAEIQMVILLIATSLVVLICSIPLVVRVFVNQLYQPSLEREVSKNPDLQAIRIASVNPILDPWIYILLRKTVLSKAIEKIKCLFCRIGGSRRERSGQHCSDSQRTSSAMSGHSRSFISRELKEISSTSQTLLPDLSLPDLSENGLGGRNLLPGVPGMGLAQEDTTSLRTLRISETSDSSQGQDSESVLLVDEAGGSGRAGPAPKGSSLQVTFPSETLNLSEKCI
Excerpt: as §1

[5] = biological target: T2, EP4; assay: EP4 binding (KI)
Excerpt: as §1

[6] = biological target: T3, hDP (Homo sapiens, UniProt Q13258); assay: Other receptors functional assay, hDP; type: cell-based
T3 sequence (Q13258 1-359): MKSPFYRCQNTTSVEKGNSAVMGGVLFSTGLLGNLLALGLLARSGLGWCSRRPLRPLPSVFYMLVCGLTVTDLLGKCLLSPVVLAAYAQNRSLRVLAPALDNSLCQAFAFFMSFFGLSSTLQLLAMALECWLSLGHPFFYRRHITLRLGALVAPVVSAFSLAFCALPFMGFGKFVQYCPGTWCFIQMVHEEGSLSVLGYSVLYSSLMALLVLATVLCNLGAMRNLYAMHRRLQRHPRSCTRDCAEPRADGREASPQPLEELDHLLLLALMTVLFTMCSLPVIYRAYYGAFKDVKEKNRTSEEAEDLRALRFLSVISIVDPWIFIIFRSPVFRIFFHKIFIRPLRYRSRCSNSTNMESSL
Excerpt: as §1

T1 sequence (P43116 whole entry): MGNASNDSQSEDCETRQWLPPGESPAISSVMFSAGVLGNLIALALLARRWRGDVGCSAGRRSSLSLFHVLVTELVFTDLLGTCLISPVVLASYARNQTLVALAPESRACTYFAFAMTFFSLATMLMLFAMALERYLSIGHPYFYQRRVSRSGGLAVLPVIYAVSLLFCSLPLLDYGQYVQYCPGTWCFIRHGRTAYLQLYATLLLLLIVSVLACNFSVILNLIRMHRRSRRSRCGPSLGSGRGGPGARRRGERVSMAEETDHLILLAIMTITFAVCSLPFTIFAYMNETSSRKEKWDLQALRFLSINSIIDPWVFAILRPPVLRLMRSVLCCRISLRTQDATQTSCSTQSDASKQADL

Row | EC50 [1] [µM] | EC50 [2] [µM] | Ki [3] [µM] | EC50 [4] [µM] | Ki [5] [µM] | EC50 [6] [µM] | SMILES
1 | > 10 | 0.004 | 0.159 | > 10 | 7.99 | – | O=C(O)c1ccc(COC[C@H]2CCC(=O)N2CCc2cc(Cl)cc(Cl)c2)s1 [(R)-5-(((1-(3,5-dichlorophenethyl)-5-oxopyrrolidin-2-yl)methoxy)methyl)thiophene-2-carboxylic acid]
2 | 8.41 | 0.0022 | 0.024 | – | > 10 | 6.22 | O=C(O)c1ccc(CCC[C@H]2CCC(=O)N2CCc2cc(Cl)cc(Cl)c2)s1 [(S)-5-(3-(1-(3,5-dichlorophenethyl)-5-oxopyrrolidin-2-yl)propyl)thiophene-2-carboxylic acid]
